Experimental data published in patent USRE39682E1, “Farnesyl derivatives and pharmaceutical compositions containing them” (Ramot at Tel Aviv University Ltd., priority 1993, dated 2007).
pIC50, pKi: −log10 of the molar value. Like-named read-outs stand apart in the source and are kept apart here.

What was measured:
[1] = test system: human endometrial carcinoma HEC1A cells; experiment: Growth of HEC1A cells (cell counting); format: cell-based; conditions: 3 days of treatment
From the text: The cell lines employed were rat1, -EJ, which are rat1 cells stably expressing Val- 12 activated human Ha-ras gene (Land H. et al., Nature, 304, 596-602, (1983)); V-raf-3T3, which are 3T3 cells stably expressing the V-raf gene (Xu, N., et al., Proc. Natl. Acad. Sci., 90, 6741-6745); RB-22, which are 3T3 cells stably expressing the rat Erb-B2 gene (Peles, et al., EMBO J., 10, 2077-2086 (1991)) CO6O cells (SV40-CHO), which are CHE cells stably expressing the SV-40 T-antigen gene (Lavi, Proc. Natl. Acad. Sci., 78, 6144-6148 (1981)); human endometrial carcinoma cell line HEC1A, which are cells that express activated K-ras (Enomoto T., Cancer Res., 50, 6139-6145; mouse B16F10 melanoma cells, rat pheochromocytoma PC12 cells, […] cells CHE and COS cells.
(§1) HEC1A, V-raf-3T3 and SV40-CHE cells were grown in Dulbecco's modified Eagle medium (DMEM) containing 10% fetal calf serum (FCS), 4 mM L-glutamine, 10 μg/ml streptomycin and 10 U/ml penicillin. Rat1 and -EJ cells were grown in the same medium except that it was supplemented with 12.5 U/ml nyostatin. RB-22 cells were grown in modified DMEM (1 mM sodium pyruvate, 20 mM sodium bicarbonate)/10% FCS containing 4 mM L-glutamine, […] streptomycin, 10 U/ml penicillin. PC-12 cells were grown in DMEM 15% FCS/5% horse serum and the above noted antibiotics.
(§2) HEC1A cells were plated in 24 well plates at a density of 5×10^3 cells per well and fed with 1 ml of medium. The cells were grown at 37° C. in a humidified atmosphere of 95%/5% air/CO2. All other cell types employed were plated in 24 well plates at a density of 2×10^3 cells per well and fed with the appropriate medium.
(§3) Cultures were treated with farnesyl derivatives or with solvent either 3 hrs following plating or one day after plating as indicated. The drugs were prepared in DMSO to yield the final desired drug (0.1-50 μM) concentration and 0.1% DMSO. Control cultures received 0.1% DMSO only. Cultures were fed on days 6, 7 and 9 of the experiment with the drugs or with solvent-containing media.
Cells were counted following 3, 7 and 10 days of beginning of treatments with drugs. For counting, cells were detached from plates with trypsin/EDTA, and collected by a low speed spin in the presence of DMEM/10% FCS. The pelleted cells were resuspended in a small volume of DMEM/10% FCS and counted under the microscope. Viability of cells was estimated by staining with (3-(4,5-dimethylthiosol-2-yl)-2,5-diphenyltetrazolium bromide (MTT) and microscopic examination of the stained and unstained cells, or spectrophotometric estimation (OD490, 590) of the total stain in each well. Non viable cells were estimated by the trypan blue exclusion method. […]

[2] = target: T1, prenylated protein methyltransferase (PPMTase) (Rattus norvegicus, UniProt Q9WVM4); experiment: Methylation of AFC by PPMTase in rat cerebellar synaptosomal membranes; format: biochemical; conditions: for pIC50: synaptosomal membranes, FIG. 2, read-out: IC50 (concentration resulting in 50% inhibition of AFC methylation)
T1 construct: from tissue; host or cells: rat cerebellum, synaptosomal membranes
T1 sequence (Q9WVM4 whole entry): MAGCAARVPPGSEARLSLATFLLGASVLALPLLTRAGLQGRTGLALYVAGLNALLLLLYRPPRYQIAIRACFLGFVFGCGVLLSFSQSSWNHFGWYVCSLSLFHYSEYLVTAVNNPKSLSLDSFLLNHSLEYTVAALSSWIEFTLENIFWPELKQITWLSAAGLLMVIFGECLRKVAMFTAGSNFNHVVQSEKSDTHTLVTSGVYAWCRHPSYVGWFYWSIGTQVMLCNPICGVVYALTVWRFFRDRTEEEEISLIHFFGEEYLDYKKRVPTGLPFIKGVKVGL
From the text: As a substrate for methylation served AFC and as the donor of methyl served [methyl-H^3] labelled AdoMet. As a source of the enzyme prenylated protein methyltransferase (PPTMase) served rat cerebellar membranes which are known to be membranes enriched with this enzyme (Ben-Baruch, Biochem. Biophys. Res. Commun., 195, 282-288. (1993)).
Charles River adult male rats were used for preparation of cerebellar synaptosomal membranes. Cerebella were removed after decapitation and homogenized in 0.32M sucrose containing 50 mM Tris-HCl pH 7.4, 3 mM EDTA, 1 mM EGTA, 5 unit/ml aprotinin and 5 μg/ml pepstatin (buffer A) to yield 10% (w/v) homogenates. Nuclear fractions were obtained by 10 min. 600×g centrifugation and synaptosomal fractions were obtained by 20 mins. 14,500×g centrifugation. Membranes of the various cell types used were prepared in the above buffer A by a 60 min. spin at 100,000×g.
Pellets were resuspended in the homogenization buffer and stored at −70° C. Methylation assays were performed at 37° C. in 50 mM Tris-HCl buffer pH 7.4, using 75-125 μg protein, 25 μM [methyl-^3H]AdoMet ([…] in DMSO) in a total volume of 50 μl. DMSO concentration in all assays was 4%.
Reactions were terminated after 10 min. by adding 500 μl chloroform methanol (1:1) and a subsequent addition of 250 μl H2O, mixing them and subsequently by phase separation. A portion of 125 μl of the chloroform phase was dried down at 40° C. and 200 μl of 1M NaOH/1% SDS solution were added thereto. The [^3H]methanol thus formed was counted by the vapor phase equilibrium method as described previously (Hakiai et al., Cell Mol. Neurobiol., 11, 415-431, (1991); Lenner et al., Cell Mol. Neurbiol., 12, 333 and 3351, (1992); Ben-Baruch et al., Biochem. Biophy. Res. Commun., 195, 282-288, (1993)). Typical background counts (i.e. counts of methylation with no AFC added) were 50-100 cpm while typical methylation counts with AFC as a substrate yielded 500 to 6000 cpm. Assays were performed in triplicate and background counts subtracted. Methylation of endogenous substrates, in intact cells, and [α-^32P] GTP-blot overlay assays and gel electrophoreses were performed as detailed previously (Hakiai et al., supra (1991); Lenner et al., supra (1993)).

untransformed rat1 cells = experiment: Growth of untransformed rat1 cells (cell counting); format: cell-based, rat; conditions: for effect on the growth of normal rat1 cells: 0.1-50 μM, 3, 7 or 10 days, FIG. 7
Experimental: as §1, §2, §3
[…] For counting, cells were detached from plates with trypsin/EDTA, and collected by a low speed spin in the presence of DMEM/10% FCS. The pelleted cells were resuspended in a small volume of DMEM/10% FCS and counted under the microscope. Viability of cells was estimated by staining with (3-(4,5-dimethylthiosol-2-yl)-2,5-diphenyltetrazolium bromide (MTT) and microscopic examination of the stained and unstained cells, or spectrophotometric estimation (OD490, 590) of the total stain in each well. Non viable cells were estimated by the trypan blue exclusion method.
Cells were plated at a density 2×10^3/well and received either solvent or drugs one day later. Following 3, 7, or 10 days of the drugs-treatment as described above, cells were collected and the number of cells in each well was estimated by direct counting. […]

[3] = Homo sapiens, HEC-1-A, 72 h, at 10 μM FTS or 50 μM FTA, read-out: maximal effects, inhibition of growth
[4] = Table II, given as range, read-out: Ki
[5] = from FIG. 2 curves, 100 μM AFC, read-out: inhibition constant (Ki)

Compound	concentration of maximal effects on growth [1] [µM]	Emax [1, 3] [%]	[3H-methyl]ester formed ([2]; 100 μM AFC + 200 μM inhibitor) [cpm/assay]	pIC50 ([2]; 100 μM AFC)	pKi [2, 4]	pKi [2, 5]	effect on the growth of normal rat1 cells (untransformed rat1 cells)	Emax at 10 µM [1, 3] [%]	serves as substrate for PPMTase methylation [2]	[3H-methyl]ester formed ([2]; 200 μM of the substance alone as substrate) [cpm/assay]	Number of cells (% of control) (untransformed rat1 cells; Ras1, 25 μM, day 5)
CC(C)=CCC/C(C)=C/CC/C(C)=C/CSCC(=O)O [FTA, S-trans, trans-farnesylthioacetic acid, reference compound]	50	~50	320 ± 50	4.64	4.98 to 5.24	5.40	neither FTA nor FTS has any significant effect	–	–	–	–
CC(C)=CCC/C(C)=C/CC/C(C)=C/CSc1ccccc1C(=O)O [FTS, (3,7,11-trimethyl-dodeca-2,6,10-trienyl)-2-thiobenzoic acid]	10	–	280 ± 30	5.00	5.38 to 5.82	5.82	neither FTA nor FTS has any significant effect	~50	does not serve as a substrate	30 ± 10	97 ± 10 % of control
